Experimental data: US4119730A, “Treating muscle spasms” (Chimicasa GmbH, priority 1976, dated 1978)
≈ marks a conversion by molar mass, not a printed value. Where two headings read alike, the source gives them in different places.

What was measured:
[1] = system: isolated guinea pig intestine; assay: inhibition of histamine-induced contraction of isolated guinea pig intestine; settings: Cavia porcellus, 2 min, read-out: ED50 (concentration of agent per liter of bath liquid which inhibits the contraction of the intestine by 50%)
Description: The antispasmodic effect of the compounds (I) could not be expected from a study of their structure alone. Their effectiveness has been measured in a pharmacological standard test as follows:
Several 3 cm-long pieces of an isolated guinea pig intestine were stretched under a load of 0.5 g in separate baths. In all baths, the bath liquid was Tyrode's solution, warmed to 32° C. A first contraction of the pieces of intestine was produced in each case by adding 0.5 mg (milligram) of histamine chloride per liter of bath liquid. he reduction in length caused by the first contraction was measured 2 min (minutes) after adding the histamine chloride.
The bath liquids were then renewed and, after relaxation of the first contraction, the agent under test, dissolved in propylene glycol, was added to the bath liquids and 2 min later 0.5 mg. of histamine chloride per liter of bath liquid was again added. A second contraction was thereby produced and the reduction in length caused by this was measured 2 min after the addition of the histamine chloride. […] The concentrations (ED50) of agent per liter of bath liquid, which inhibit the contraction of the intestine by 50% were determined (ED50 = effective dose to inhibit for 50%).

[2] = cited from earlier work
[3] = system: bladder; assay: cystometric measuring of the damping of the increase of the bladder tonus caused by a spasmogenic agent (carbachol); format: in vivo, human
Description: The effectiveness test is performed by cystometric measuring of the damping of the increase of the bladder tonus caused by the antispasmodic agent after intravesical administration of a spasmogenic agent as follows:
The bladder capacity (BC) of several human subjects with indwelling permanent catheters is measured by filling the bladders with water warmed to 37° C. The maximum micturition pressure (MM) in the case of the filled bladder is measured. The bladder is then emptied and filled again with warm, clean water to half the capacity measured previously (1/2 BC) and the pressure P1 in the case of the half-filled bladder is measured. The bladder is again emptied and filled again to half its capacity with a solution 1. […] The pressure P2 for half its capacity is measured. […] 30 minutes thereafter the emptied bladder is filled with water, warmed to 37° C. to half its capacity and the pressure P3 is measured. The bladder is subsequently emptied and filled to half its capacity with the solution 1 and the pressure P4 is measured. Fifteen minutes later, the bladder is emptied again and filled to half its capacity with water, warmed to 37° C. and the pressure P5 is measured. Directly thereafter, the bladder is emptied and filled to half its capacity with solution 1 and the pressure P6 is measured. […]

[4] = 0.5 mg histamine chloride per liter, Tyrode's solution, 32° C.

Work on CC=Cc1ccc(OC)c(OC)c1 [3,4-Dimethoxy-propenylbenzol] yielded an IC50 [1, 4] of 27 µg/mL (≈ 151 µM).
For CC=Cc1ccc(OC(C)=O)c(OC)c1 [2-Methoxy-4-propenylphenyl acetate], the IC50 [1] was 52 µg/mL.
For CN1[C@@H]2CC[C@H]1C[C@@H](OC(=O)C(CO)c1ccccc1)C2 (stereo partly drawn) [atropine], the drug dependence ([2]; especially with long term treatment, prior art) is listed as “drug dependence can occur” and the “side effects associated with use” value ([2]; known antispasmodic, prior art) is listed as “inducement of sleepiness, mental confusion and a state of inattentiveness”.
In the case of COc1ccc(Cc2nccc3cc(OC)c(OC)cc23)cc1OC [Papaverine], the non-specific actions ([2]; in vivo) is listed as “observed”, the “activity in animal experiments” value ([2]; prior art) is listed as “very active in animal experiments” and the “activity when used on humans” value ([2]; prior art) is listed as “its activity is insufficient”. For the same compound, the “dosage required in severe spasms relative to lethal dose” value ([2]; prior art, lethal dose from animal experiments) was “very high dosages, near the lethal dose”.
For C=CCc1ccc(OC)c(OC)c1 [1-Allyl-3,4-dimethoxybenzene], the effectiveness on humans ([3]; rectal) was “effectiveness” and the IC50 [1] was 11.8 µg/mL (≈ 66.2 µM).
Work on C=CCc1ccc(OC(=O)c2ccccc2)c(OC)c1 [4-Allyl-2-methoxyphenyl benzoate] yielded an IC50 [1, 4] of 160 µg/mL (≈ 596 µM).
For C=CCc1ccc(OC(C)=O)c(OC)c1 [4-Allyl-2-methoxyphenyl acetate], the effectiveness on humans ([3]; rectal or oral) was “effectiveness” and the IC50 [1, 4] was 25 µg/mL.
C=CCc1ccc(OC(=O)CCCC)c(OC)c1 [4-Allyl-2-methoxyphenyl valerate] gave an IC50 [1, 4] of 44.6 µg/mL (≈ 180 µM).
Compound C=CCc1ccc(OC(=O)CCC)c(OC)c1 [4-Allyl-2-methoxyphenyl butanoate] has an IC50 [1, 4] of 14.5 µg/mL (≈ 61.9 µM).
